Reference: ChEMBL document CHEMBL1811859, “Second-generation sulfonamide inhibitors of D-glutamic acid-adding enzyme: activity optimisation with conformationally rigid analogues of D-glutamic acid” (Eur J Med Chem, 2011)
≈ marks a conversion by molar mass, not a printed value.

Experiments:
[1] = Inhibition of Escherichia coli MurD ligase
Klebsiella pneumoniae = test: Antimicrobial activity against Klebsiella pneumoniae ATCC 13883 by broth dilution method; type: functional
[2] = Inhibition of Escherichia coli MurD ligase assessed as addition of D-[3H]glu to UDP-N-acetyl-muramoyl-L-alanine after 30 mins
Escherichia coli [3] = test: Antimicrobial activity against Escherichia coli ATCC 8739 by broth dilution method; type: functional
Enterococcus faecalis [4] = test: Antimicrobial activity against Enterococcus faecalis ATCC 29212 by broth dilution method; type: functional
Staphylococcus aureus [5] = test: Antimicrobial activity against methicillin-resistant Staphylococcus aureus ATCC 43300 by broth dilution method; type: functional
Streptococcus pneumoniae [6] = test: Antimicrobial activity against Streptococcus pneumoniae ATCC 49619 by broth dilution method; type: functional
Staphylococcus aureus [7] = test: Antimicrobial activity against Staphylococcus aureus ATCC 25923 by broth dilution method; type: functional
Listeria monocytogenes = test: Antimicrobial activity against Listeria monocytogenes ATCC 14780 by broth dilution method; type: functional
Proteus mirabilis = test: Antimicrobial activity against Proteus mirabilis ATCC 29936 by broth dilution method; type: functional
Streptococcus pneumoniae [8] = test: Antimicrobial activity against Streptococcus pneumoniae D39 by broth dilution method; type: functional
Listeria innocua = test: Antimicrobial activity against Listeria innocua ATCC 33090 by broth dilution method; type: functional
Escherichia coli [9] = test: Inhibition of Escherichia coli MurD ligase assessed as residual activity at 500 uM after 30 mins
Streptococcus pneumoniae [10] = test: Antimicrobial activity against Streptococcus pneumoniae ATCC 33400 by broth dilution method; type: functional
[11] = tested on: Staphylococcus epidermidis; test: Antimicrobial activity against Staphylococcus epidermidis ATCC 12228 by broth dilution method; type: functional
Pseudomonas aeruginosa = test: Antimicrobial activity against Pseudomonas aeruginosa ATCC 27853 by broth dilution method; type: functional
Micrococcus luteus = test: Antimicrobial activity against Micrococcus luteus ATCC 9314 by broth dilution method; type: functional
Staphylococcus aureus [12] = test: Antimicrobial activity against methicillin-resistant Staphylococcus aureus PL1 by broth dilution method; type: functional
Citrobacter freundii = test: Antimicrobial activity against Citrobacter freundii ATCC 8090 by broth dilution method; type: functional
Bacillus subtilis = test: Antimicrobial activity against Bacillus subtilis ATCC 6633 by broth dilution method; type: functional
Enterococcus faecalis [13] = test: Antimicrobial activity against Enterococcus faecalis ATCC 19433 by broth dilution method; type: functional
Enterococcus faecium = test: Antimicrobial activity against Enterococcus faecium ATCC 19434 by broth dilution method; type: functional
Enterococcus hirae = test: Antimicrobial activity against Enterococcus hirae ATCC 9790 by broth dilution method; type: functional
[14] = Inhibition of Escherichia coli MurD ligase assessed as addition of D-[3H]glu to UDP-N-acetyl-muramoyl-L-alanine
[15] = Inhibition of Escherichia coli MurD ligase by fluorimetric assay
[16] = Inhibition of Escherichia coli MurD ligase after 10 mins using malachite green reagent by colorimetry

| SMILES | MIC (Klebsiella pneumoniae) [µg/mL] | MIC (Escherichia coli [3]) [µg/mL] | MIC (Enterococcus faecalis [4]) [µg/mL] | MIC (Staphylococcus aureus [5]) [µg/mL] | MIC (Streptococcus pneumoniae [6]) [µg/mL] | MIC (Staphylococcus aureus [7]) [µg/mL] | MIC (Listeria monocytogenes) [µg/mL] | MIC (Proteus mirabilis) [µg/mL] | MIC (Streptococcus pneumoniae [8]) [µg/mL] | MIC (Listeria innocua) [µg/mL] | Activity (Escherichia coli [9]) [%] | MIC (Streptococcus pneumoniae [10]) [µg/mL] | MIC [11] [µg/mL] | MIC (Pseudomonas aeruginosa) [µg/mL] | MIC (Micrococcus luteus) [µg/mL] | MIC (Staphylococcus aureus [12]) [µg/mL] | MIC (Citrobacter freundii) [µg/mL] | MIC (Bacillus subtilis) [µg/mL] | MIC (Enterococcus faecalis [13]) [µg/mL] | MIC (Enterococcus faecium) [µg/mL] | other results |
| --- | --- | --- | --- | --- | --- | --- | --- | --- | --- | --- | --- | --- | --- | --- | --- | --- | --- | --- | --- | --- | --- |
| CCCCOc1ccc2cc(S(=O)(=O)N[C@@H](CCC(=O)O)C(=O)O)ccc2c1 |  |  |  |  |  |  |  |  |  |  |  |  |  |  |  |  |  |  |  |  | IC50 [1]: 710 µM |
| N#Cc1ccc(COc2ccc3cc(S(=O)(=O)Nc4ccc(O)cc4C(=O)O)ccc3c2)c(F)c1 | > 512 | > 512 | > 512 | > 512 | > 512 | > 512 | > 512 | > 512 | > 512 | > 512 | 3 | > 512 | > 512 | > 512 | > 512 | > 512 | > 512 | > 512 | > 512 | > 512 | IC50 [2]: 46 µM; Ki [2]: 32 µM; MIC (Enterococcus hirae): > 512 µg/mL |
| CC(=O)N[C@H]1C(OP(=O)(O)O)O[C@H](CO)[C@@H](O)[C@@H]1O[C@H](C)C(=O)N[C@@H](C)P(=O)(O)CC(CCC(=O)O)C(=O)O (stereo not given in full) |  |  |  |  |  |  |  |  |  |  |  |  |  |  |  |  |  |  |  |  | IC50 [14]: 0.02 µM |
| O=C(N/N=C/c1ccc(O)c(O)c1O)c1n[nH]c2ccccc12 |  |  |  |  |  |  |  |  |  |  |  |  |  |  |  |  |  |  |  |  | IC50 [1]: 324 µM |
| Cc1ccc(C(=O)O)cc1NC(=O)CSc1nnc(N)s1 |  |  |  |  |  |  |  |  |  |  |  |  |  |  |  |  |  |  |  |  | IC50 [15]: 105 µM |
| C[C@@H]1NC(=O)[C@H](CO)NC(=O)CCCCCC[C@H](C(=O)O)CC1=O |  |  |  |  |  |  |  |  |  |  |  |  |  |  |  |  |  |  |  |  | IC50 [16]: 0.7 µM |
| N#Cc1ccc(COc2ccc3cc(S(=O)(=O)Nc4ccc(CC(=O)O)cc4)ccc3c2)c(F)c1 | > 512 | > 512 | > 512 | > 512 | 64 (≈ 130 µM) | > 512 | > 512 | > 512 | 64 (≈ 130 µM) | > 512 | 64 | 32 (≈ 65.2 µM) | > 512 | > 512 | > 512 | > 512 | > 512 | > 512 | > 512 | > 512 | MIC (Enterococcus hirae): > 512 µg/mL |
| CCCCOc1ccc2cc(S(=O)(=O)Nc3ccc(CC(=O)O)cc3)ccc2c1 | > 512 | > 512 | 256 (≈ 619 µM) | 256 (≈ 619 µM) | > 512 | 256 (≈ 619 µM) | > 512 | > 512 | > 512 | > 512 | 97 | > 512 | 256 (≈ 619 µM) | > 512 | 512 (≈ 1240 µM) | 256 (≈ 619 µM) | > 512 | 512 (≈ 1240 µM) | 512 (≈ 1240 µM) | 512 (≈ 1240 µM) | MIC (Enterococcus hirae): 512 µg/mL (≈ 1240 µM) |
